{"source": "patent US5225410A", "about": "“Triazolyl hydrazide derivatives” (Egis Gyogyszergyar, priority 1989, dated 1993)", "key": {"Acute toxicity on mice": {"test": "Acute toxicity on mice", "settings": "mouse, in vivo, po, observed 14 days", "protocol": "Method: Litchfield, J. T., Wilcoxon, F. W.: Pharmacol. Exp. Ther., 96, 99 (1949)\nWhite mice belonging to the CFLP strain (body weight 18 to 22 g, both male and female) were used, 6 animals for each dose. The test compounds were administered orally in a volume of 20 ml/kg. […] The mice were kept in a plastic cage at room temperature. The animals get tap water and standard mouse fodder ad libitum. The toxicity data were determined with the aid of the method of Litchfield and Wilcoxon."}, "Salmonella enteritidus": {"test_system": "Salmonella enteritidus", "test": "Antimicrobial effect, agar diffusion method", "format": "cell-based", "settings": "HNCMB 10091; 500/μg/hole", "excerpt": "(§1) In addition, the compounds according to the invention posses valuable antimicrobial effect, especially against nonfermenting Gram-negative bacteria strains."}, "Alcaligenea faecalis": {"test_system": "Alcaligenea faecalis", "test": "Antimicrobial effect, agar diffusion method", "format": "cell-based", "settings": "HNCMB 140001; 500/μg/hole", "excerpt": "as §1"}, "[1]": {"test_system": "Acinetobacter calcoaceticus", "test": "Antimicrobial effect, agar diffusion method", "format": "cell-based", "settings": "HNCMB 150001; 500/μg/hole", "excerpt": "as §1"}, "Shigella sonnei": {"test_system": "Shigella sonnei", "test": "Antimicrobial effect, agar diffusion method", "format": "cell-based", "settings": "HNCMB 20046; 500/μg/hole", "excerpt": "as §1"}, "Pseudomonas stutzeri": {"test_system": "Pseudomonas stutzeri", "test": "Antimicrobial effect, agar diffusion method", "format": "cell-based", "settings": "HNCMB 173008; 500/μg/hole", "excerpt": "as §1"}, "Pseudomonas aeruginosa": {"test_system": "Pseudomonas aeruginosa", "test": "Antimicrobial effect, agar diffusion method", "format": "cell-based", "settings": "HNCMB 170006; 500/μg/hole", "excerpt": "as §1"}, "mice": {"test_system": "mice", "format": "in vivo", "settings": "p.o., motility inhibiting effect", "protocol": "Method: Borsy, J., Csanyi, E., Lazar, I.: Arch. Int. Pharmacodyn. 124, 1-2 (1960)\nThe tests were performed on mice. Groups consisting of 3 mice each were trated perorally with different doses of the compounds to be tested. One hour after the administration the test animals were placed in a Dews equipment. In this equipment the number of interruptions of infrared beam within 30 minutes was counted."}, "[2]": {"test_system": "experimental coronaria insufficiency", "test": "Antianginal effect (vasopressin-induced experimental coronaria insufficiency, ECG wave T)", "format": "in vivo", "settings": "Rattus norvegicus; rats, iv., 2 minutes prior to vasopressin", "protocol": "The test was carried out on rats weighing 180 to 220 g. The animals were narcotised with chloralese-urethane (70-700 mg/kg ip.). The ECG was registered with needle electrodes in standard II leading. The experimental coronaria insufficiency was induced with vasopressin (1 NE/kg i.v.). The height of wave T was measured before and after the administration of vasopressin in both the control and treated groups."}, "[3]": {"test_system": "Gastric-secretion and ulcus", "test": "Stomach-secretion and ulcus tests (pylorus ligature)", "format": "in vivo, Wistar rats", "settings": "3 hours before operation", "protocol": "Method: Shay, H., Komarov, S. A., Fels. S. S., Meranze, D., Gruenstein, M., Siplet, H.: Gastroenterology 5, 45 (1945); Adami, E., Marazzi-Ubertti, E., Tirba, C.: Arch. Int. Pharmacodyn. 147, 113 (1964)\nStarved wistar […] of 150-250 g body weight were used, 4 male and 4 female animals for each dose. On the day of the experiment the pylorus of the animals was ligatured under ether narcosis. The doses of the test compounds were administered per os, 3 hours before the operation. The control groups were treated with the carrier in identical way. 4 hours after the operation the animals were over-narcotized with ether, their stomach was removed, the stomach contents were separated and after centrifugation the volume of the gastric juices was measured, then their free-acid content and total acidity, resp., were determined by titration with 0.1N NaOH solution. The changes of the gastric mucous membrane were investigated macroscopically and characterized by an ulcus index determined with the aid of the punctuation method of Adami and coworkers."}}}
{"smiles": "CN1CCN(c2nc(N)n(C(=S)N(C)N)n2)CC1", "note": "[Example 9]", "values": [{"measurement": "LD50 at 336 h", "setting": "Acute toxicity on mice", "result": 1000, "unit": "mg/kg"}, {"measurement": "Inhibition (%)", "setting": "Salmonella enteritidus", "result": 17, "unit": "%"}, {"measurement": "Inhibition (%)", "setting": "Alcaligenea faecalis", "result": 23, "unit": "%"}, {"measurement": "Inhibition (%)", "setting": "[1]", "result": 20, "unit": "%"}, {"measurement": "Inhibition (%)", "setting": "Shigella sonnei", "result": 19, "unit": "%"}, {"measurement": "Inhibition (%)", "setting": "Pseudomonas stutzeri", "result": 25, "unit": "%"}, {"measurement": "Inhibition (%)", "setting": "Pseudomonas aeruginosa", "result": 14, "unit": "%"}]}
{"smiles": "CSc1nc(N)n(C(=S)NN)n1", "note": "[Example 17, 1-(5-Amino-3-methylthio-1H-1,2,4-triazol-1-yl)carbothiohydrazide]", "values": [{"measurement": "LD50 at 336 h", "setting": "Acute toxicity on mice", "result": 350, "unit": "mg/kg"}, {"measurement": "Therapeutical index", "setting": "mice", "result": "~ 5"}, {"measurement": "ED50", "setting": "[2]", "result": 0.84, "unit": "mg/kg"}]}
{"smiles": "CSc1nc(N)n(C(=S)N(C)N)n1", "note": "[Example 4, 1-(5-Amino-3-methylthio-1H-1,2,4-triazol-1-yl)-N-methyl-carbothiohydrazide]", "values": [{"measurement": "LD50 at 336 h", "setting": "Acute toxicity on mice", "result": 300, "unit": "mg/kg"}, {"measurement": "Inhibition related to the control in %, free acid", "setting": "[3]; 60 mg/kg po.", "result": 60, "unit": "%"}, {"measurement": "Inhibition related to the control in %, gastric juice", "setting": "[3]; 60 mg/kg po.", "result": 41, "unit": "%"}, {"measurement": "Inhibition related to the control in %, total acidity", "setting": "[3]; 60 mg/kg po.", "result": 50, "unit": "%"}, {"measurement": "Inhibition related to the control in %, ulcus index", "setting": "[3]; 60 mg/kg po.", "result": 67, "unit": "%"}]}
{"smiles": "CCCC(C)(COC(N)=O)COC(N)=O", "note": "[Meprobamate, reference compound]", "values": [{"measurement": "Therapeutical index", "setting": "mice", "result": 4.1}]}
{"smiles": "CNN(C)C(=S)n1nc(N2CCOCC2)nc1N", "note": "[Example 20, 1-(5-Amino-3-morpholino-1H-1,2,4-triazol-1-yl)-N,N'-dimethyl-carbothiohydrazide]", "values": [{"measurement": "LD50 at 336 h", "setting": "Acute toxicity on mice", "result": 1000, "unit": "mg/kg"}, {"measurement": "Inhibition related to the control in %, free acid", "setting": "[3]; 50 mg/kg po.", "result": 46, "unit": "%"}, {"measurement": "Inhibition related to the control in %, gastric juice", "setting": "[3]; 50 mg/kg po.", "result": 36, "unit": "%"}, {"measurement": "Inhibition related to the control in %, total acidity", "setting": "[3]; 50 mg/kg po.", "result": 36, "unit": "%"}, {"measurement": "Inhibition related to the control in %, ulcus index", "setting": "[3]; 50 mg/kg po.", "result": 39, "unit": "%"}, {"measurement": "Inhibition related to the control in %, free acid", "setting": "[3]; 200 mg/kg po.", "result": 91, "unit": "%"}, {"measurement": "Inhibition related to the control in %, gastric juice", "setting": "[3]; 200 mg/kg po.", "result": 58, "unit": "%"}, {"measurement": "Inhibition related to the control in %, total acidity", "setting": "[3]; 200 mg/kg po.", "result": 78, "unit": "%"}, {"measurement": "Inhibition related to the control in %, ulcus index", "setting": "[3]; 200 mg/kg po.", "result": 70, "unit": "%"}]}
{"smiles": "CC(Cc1ccccc1)NCCC(c1ccccc1)c1ccccc1", "note": "(centres unmarked) [Prenylamine, reference compound]", "values": [{"measurement": "ED50", "setting": "[2]", "result": 6.5, "unit": "mg/kg"}]}
{"smiles": "NNC(=S)n1nc(N2CCOCC2)nc1N", "note": "[Example 16, 1-(5-Amino-3-morpholino-1H-1,2,4-triazol-1-yl)carbothiohydrazide]", "values": [{"measurement": "LD50 at 336 h", "setting": "Acute toxicity on mice", "result": 1000, "unit": "mg/kg"}, {"measurement": "ED50", "setting": "[2]", "result": 0.7, "unit": "mg/kg"}]}
{"smiles": "CN(N)C(=S)n1nc(N2CCOCC2)nc1N", "note": "[Example 1, 1-(5-Amino-3-morpholino-1H-1,2,4-triazol-1-yl)-N-methyl-carbothiohydrazide]", "values": [{"measurement": "LD50 at 336 h", "setting": "Acute toxicity on mice", "result": "> 1000", "unit": "mg/kg"}, {"measurement": "Therapeutical index", "setting": "mice", "result": "> 10"}]}
{"smiles": "CN/C(=N/CCSCc1nc[nH]c1C)NC#N", "note": "[Cimetidine, reference compound]", "values": [{"measurement": "Inhibition related to the control in %, free acid", "setting": "[3]; 50 mg/kg po.", "result": 24, "unit": "%"}, {"measurement": "Inhibition related to the control in %, gastric juice", "setting": "[3]; 50 mg/kg po.", "result": 22, "unit": "%"}, {"measurement": "Inhibition related to the control in %, total acidity", "setting": "[3]; 50 mg/kg po.", "result": 15, "unit": "%"}, {"measurement": "Inhibition related to the control in %, ulcus index", "setting": "[3]; 50 mg/kg po.", "result": 18, "unit": "%"}, {"measurement": "Inhibition related to the control in %, free acid", "setting": "[3]; 200 mg/kg po.", "result": 91, "unit": "%"}, {"measurement": "Inhibition related to the control in %, gastric juice", "setting": "[3]; 200 mg/kg po.", "result": 59, "unit": "%"}, {"measurement": "Inhibition related to the control in %, total acidity", "setting": "[3]; 200 mg/kg po.", "result": 71, "unit": "%"}, {"measurement": "Inhibition related to the control in %, ulcus index", "setting": "[3]; 200 mg/kg po.", "result": 72, "unit": "%"}]}
